Results on eight compounds are retold here after patent US9662390B2, “Use of opioid antagonists to attenuate endothelial cell proliferation and migration” (THE UNIVERSITY OF CHICAGO, priority 2005, dated 2017).

“Also recorded” adds a separate entry of the source.

The test system of data set [1] is human pulmonary microvascular endothelial cells (HPMVEC). As to the kind of experiment: Human pulmonary microvascular EC migration assay (Transwell). To be noted: for agonist-induced HPMVEC migration: agonist 100 nM, 18 hours. It is filed as cell-based.
For data set [2] the test system is unchanged. In words: Human pulmonary microvascular EC proliferation assay (CellTiter96 MTS). The class given is cell-based. The following applies: for agonist-induced HPMVEC proliferation: agonist 100 nM, 24 h, serum-free media.
The next data set has as its system RhoA. In words: RhoA activation assay (RBD beads, anti-RhoA immunoblot). The following applies: for agonist-stimulated RhoA activation: endothelial cells. It is filed as cell-based, human.
In a further data set the target is mu opioid receptor (Homo sapiens, UniProt P35372). As to the kind of experiment: Serine/threonine phosphorylation of the mu opioid receptor in EC (Example 9). It is filed as cell-based.
The test system of a further data set is VEGF receptor 1 (Flt-1). In words: Tyrosine phosphorylation of VEGF receptor 1, immunoprecipitation and immunoblot. It is filed as cell-based, human. To be noted: HPMVEC.
In another data set the test system is VEGF receptor 2 (Flk-1). As to the kind of experiment: Tyrosine phosphorylation of VEGF receptor 2, immunoprecipitation and immunoblot. It is filed as cell-based, human. To be noted: HPMVEC.
Another data set concerns VEGF receptor. In words: Tyrosine phosphorylation of the VEGF receptor in EC (Example 9). It is filed as cell-based, human.
The next data set has as its system PDGF receptor. As to the kind of experiment: Tyrosine phosphorylation of the PDGF receptor in EC (Example 9). It is filed as cell-based, human.
The next data set relates to S1P3 receptor. In words: Tyrosine phosphorylation of the S1P3 receptor in EC (Example 9). It is filed as cell-based, human.
The subject of a further data set is tumors. In words: Tumor-bearing mice: tumor growth and angiogenesis. The class given is in vivo. To be noted: eight weeks; for angiogenesis and tumor growth, combination of opioid, opioid antagonist and anticancer agent compared to the other groups: antagonist 5 mg/kg/day, morphine 0.5 mg/kg/day, bevacizumab (Avastin) 5 mg/kg every 14 days; for tumor growth and angiogenesis compared to controls or opioid alone: antagonist orally 5 mg/kg/day with morphine orally 0.5 mg/kg/day.

A further data set relates to tumor. In words: Human cancer patients: tumor growth and angiogenesis. The class given is in vivo. To be noted: antagonist orally 5 mg/kg/day, eight weeks, with opioid and bevacizumab (Avastin).
For data set [3] the following is noted: in vivo; cited from earlier work.
For data set [4] the following is noted: white crystalline powder, typically the bromide salt; cited from earlier work.
Data set [5] concerns morphine induced angiogenesis. To be noted: xenograft tumor model in mice; cited from earlier work.
Another data set has as its system F11 c-1. The following applies: T241 fibrosarcoma; no increase in morphine treated KO mice; cited from earlier work.
For data set [6] the following is noted: sickle cell disease; cited from earlier work.
[7] abbreviates: MNTX 100 nM (0.1 μM, 1 hour pretreatment), induced by MS/morphine, DAMGO, VEGF, in Example 9 also S1P and PDGF.

Sequence of mu opioid receptor (P35372 whole entry): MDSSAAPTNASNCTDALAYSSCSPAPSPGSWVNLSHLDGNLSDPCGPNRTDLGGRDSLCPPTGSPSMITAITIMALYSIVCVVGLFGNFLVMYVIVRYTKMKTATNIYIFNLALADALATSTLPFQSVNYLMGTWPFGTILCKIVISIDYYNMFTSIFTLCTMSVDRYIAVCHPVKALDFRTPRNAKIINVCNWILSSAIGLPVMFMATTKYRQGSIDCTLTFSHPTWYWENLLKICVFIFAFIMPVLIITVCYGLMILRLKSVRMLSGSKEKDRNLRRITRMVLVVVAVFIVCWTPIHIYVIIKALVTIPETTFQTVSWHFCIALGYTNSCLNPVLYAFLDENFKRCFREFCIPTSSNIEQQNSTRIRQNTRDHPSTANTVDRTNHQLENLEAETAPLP
Description for RhoA: The supernatant is removed and the RBD-beads with the GTP-bound form of RhoA bound are washed extensively.

For `CCCCCCCCCCCCC/C=C/[C@@H](O)[C@@H](N)COP(=O)(O)O` [SIP, sphingosine 1-phosphate], the “agonist-induced HPMVEC migration” value in [1] is recorded as “induced”. Further, the “agonist-induced HPMVEC proliferation” value in data set [2] is “induced proliferation”. The “agonist-stimulated RhoA activation” value in the data set on RhoA is “activation of the cytoskeletal regulatory small G-protein, RhoA”. The “agonist-induced serine/threonine phosphorylation of the mu opioid receptor” value at mu opioid receptor is given as “induced serine/threonine phosphorylation”.

In the case of `C[N+]1(CC2CC2)CCC23c4c5ccc(O)c4OC2C(=O)CCC3(O)C1C5` (stereo not shown) [MNTX, N-methylnaltrexone], the “inhibition of agonist-induced HPMVEC migration” value in [1] (setting [7]) is given as “inhibited”. Also, the “inhibition of agonist-induced HPMVEC proliferation” value in [2] (setting [7]) is listed as “attenuated; also recorded: inhibited”. Besides, in the data set with VEGF receptor 1 (Flt-1), the “effect on MS and DAMGO induced tyrosine phosphorylation of VEGF receptor 1” value is on record as “blocked”; the “effect on VEGF induced tyrosine phosphorylation of VEGF receptor 1” value is given as “attenuates”. In the data set with VEGF receptor 2 (Flk-1), the “effect on MS and DAMGO induced tyrosine phosphorylation of VEGF receptor 2” value is recorded as “blocked”; the “effect on VEGF induced tyrosine phosphorylation of VEGF receptor 2” value was “attenuates”. Further, the “effect on agonist-stimulated RhoA activation” value with RhoA (induced by morphine/MS, DAMGO, VEGF, in Example 9 also S1P and PDGF) is recorded as “inhibited; also recorded: attenuated”. In addition, the “effect of MNTX pretreatment on agonist-induced VEGF receptor phosphorylation” value in the data set with VEGF receptor is reported as “attenuated”. Further, the “effect of MNTX pretreatment on agonist-induced PDGF receptor phosphorylation” value in the data set with PDGF receptor is on record as “attenuated”. The “effect of MNTX pretreatment on agonist-induced S1P3 receptor phosphorylation” value in the data set with S1P3 receptor is “attenuated”. For the same compound, the “effect of MNTX pretreatment on agonist-induced mu opioid receptor phosphorylation” value on mu opioid receptor is recorded as “attenuated”. In addition, in the data set with tumors, the “angiogenesis and tumor growth, combination of opioid, opioid antagonist and anticancer agent compared to the other groups” value was “enhanced result”; the “tumor growth and angiogenesis compared to controls or opioid alone” value is “reduction in tumor growth and angiogenesis”. Also, the “angiogenesis and tumor growth, combination of opioid, opioid antagonist and anticancer agent compared to the other groups” value in the data set with tumor is reported as “enhanced result”. In addition, in data set [3], the “tolerability of doses that maintain plasma MNTX between about 25 and 150 ng/mL” value is “well tolerated”. Besides, the solubility in water entry in data set [4] is on record as “freely soluble in water”.

Turning to `C[C@H]1CN(C[C@H](Cc2ccccc2)C(=O)NCC(=O)O)CC[C@@]1(C)c1cccc(O)c1` [alvimopan], in the data set on tumors, the “angiogenesis and tumor growth, combination of opioid, opioid antagonist and anticancer agent compared to the other groups” value is given as “enhanced result”; the “tumor growth and angiogenesis compared to controls or opioid alone” value was “reduction in tumor growth and angiogenesis”. Further, the “angiogenesis and tumor growth, combination of opioid, opioid antagonist and anticancer agent compared to the other groups” value in the data set on tumor was “enhanced result”.

As for `C=CCN1CC[C@]23c4c5ccc(O)c4O[C@H]2C(=O)CC[C@@]3(O)[C@H]1C5` [naloxone], the “effect on morphine induced angiogenesis” value in [5] was “did not exhibit a significant effect”.

In the case of `C[C@@H](NC(=O)[C@@H](N)Cc1ccc(O)cc1)C(=O)NCC(=O)N(C)[C@@H](Cc1ccccc1)C(=O)NCCO` [DAMGO, [D-Ala^2, N-MePhe^4, Gly^5-ol] enkephalin], the “agonist-induced HPMVEC migration” value in [1] is recorded as “induce HPMVEC migration; also recorded: induced”. For the same compound, the “agonist-induced HPMVEC proliferation” value in data set [2] is listed as “stimulate HPMVEC proliferation; also recorded: induced proliferation”. Moreover, in the data set with VEGF receptor 1 (Flt-1), the “agonist-induced tyrosine phosphorylation of VEGF receptor 1 (Flt-1)” value is on record as “induce tyrosine phosphorylation”. The “agonist-induced tyrosine phosphorylation of VEGF receptor 2 (Flk-1)” value with VEGF receptor 2 (Flk-1) is “induce tyrosine phosphorylation”. For the same compound, the “agonist-stimulated RhoA activation” value in the data set on RhoA was “stimulate RhoA activation”. Besides, the “agonist-induced tyrosine phosphorylation of the VEGF receptor” value in the data set with VEGF receptor is listed as “induced tyrosine phosphorylation”. Besides, the “agonist-induced tyrosine phosphorylation of the PDGF receptor” value with PDGF receptor is given as “induced tyrosine phosphorylation”. Also, the “agonist-induced tyrosine phosphorylation of the S1P3 receptor” value in the data set on S1P3 receptor was “induced tyrosine phosphorylation”.

With “vascular endothelial growth factor [VEGF]”, the “agonist-induced HPMVEC migration” value in [1] was “induce HPMVEC migration; also recorded: induced”. In [2], the “agonist-induced HPMVEC proliferation” value is “stimulate HPMVEC proliferation; also recorded: induced proliferation”. Moreover, the “agonist-induced tyrosine phosphorylation of VEGF receptor 1 (Flt-1)” value in the data set with VEGF receptor 1 (Flt-1) is given as “induced”. The “agonist-induced tyrosine phosphorylation of VEGF receptor 2 (Flk-1)” value with VEGF receptor 2 (Flk-1) is “induced”. Besides, the “agonist-stimulated RhoA activation” value in the data set on RhoA is on record as “stimulate RhoA activation; also recorded: activation of the cytoskeletal regulatory small G-protein, RhoA”. For the same compound, the “agonist-induced serine/threonine phosphorylation of the mu opioid receptor” value on mu opioid receptor was “induced serine/threonine phosphorylation”.

With platelet-derived growth factor [PDGF], in data set [1], the “agonist-induced HPMVEC migration” value was “induced”. Besides, in data set [2], the “agonist-induced HPMVEC proliferation” value is “induced proliferation”. In addition, the “agonist-stimulated RhoA activation” value with RhoA is reported as “activation of the cytoskeletal regulatory small G-protein, RhoA”. Further, on mu opioid receptor, the “agonist-induced serine/threonine phosphorylation of the mu opioid receptor” value is given as “induced serine/threonine phosphorylation”.

As to `CN1CC[C@]23c4c5ccc(O)c4O[C@H]2[C@@H](O)C=C[C@H]3[C@H]1C5` [morphine], the “agonist-induced HPMVEC migration” value in data set [1] was “induced”; in data set [1] (listed as MS) it was “induce HPMVEC migration”. Further, the “agonist-induced HPMVEC proliferation” value in data set [2] is listed as “induced proliferation”; in [2] (listed as MS) it was “stimulate HPMVEC proliferation”. Moreover, in the data set on VEGF receptor 1 (Flt-1), the “agonist-induced tyrosine phosphorylation of VEGF receptor 1 (Flt-1)” value was “induce tyrosine phosphorylation”. Further, in the data set with VEGF receptor 2 (Flk-1), the “agonist-induced tyrosine phosphorylation of VEGF receptor 2 (Flk-1)” value is “induce tyrosine phosphorylation”. Moreover, the “agonist-stimulated RhoA activation” value with RhoA and with RhoA (listed as MS) was “stimulate RhoA activation” in each case. Further, the “agonist-induced tyrosine phosphorylation of the VEGF receptor” value in the data set with VEGF receptor is listed as “induced tyrosine phosphorylation”. Besides, the “agonist-induced tyrosine phosphorylation of the PDGF receptor” value in the data set with PDGF receptor is recorded as “induced tyrosine phosphorylation”. For the same compound, the “agonist-induced tyrosine phosphorylation of the S1P3 receptor” value in the data set on S1P3 receptor is reported as “induced tyrosine phosphorylation”. For the same compound, the “increase in F11 c-1 expression in morphine treated mice versus controls” value in the data set with F11 c-1 is reported as 10 fold. Besides, in data set [6], the proliferative retinopathy result is “induced proliferative retinopathy”.
